Experimental data published in ChEMBL document CHEMBL3991601, “The target landscape of clinical kinase drugs” (Science, 2017).
Activity calls are given as the source filed them. Cut-off read from the data, not from the text of the source, for most assays here: actives have a measured Kd and inactives only a lower limit.

Tests used:
[1] = target: Serine/threonine-protein kinase N2 (Homo sapiens, UniProt Q16513)
[2] = target: T1, Mitogen-activated protein kinase kinase kinase 2 (Homo sapiens, UniProt Q9Y2U5)
T1 sequence (Q9Y2U5 whole entry): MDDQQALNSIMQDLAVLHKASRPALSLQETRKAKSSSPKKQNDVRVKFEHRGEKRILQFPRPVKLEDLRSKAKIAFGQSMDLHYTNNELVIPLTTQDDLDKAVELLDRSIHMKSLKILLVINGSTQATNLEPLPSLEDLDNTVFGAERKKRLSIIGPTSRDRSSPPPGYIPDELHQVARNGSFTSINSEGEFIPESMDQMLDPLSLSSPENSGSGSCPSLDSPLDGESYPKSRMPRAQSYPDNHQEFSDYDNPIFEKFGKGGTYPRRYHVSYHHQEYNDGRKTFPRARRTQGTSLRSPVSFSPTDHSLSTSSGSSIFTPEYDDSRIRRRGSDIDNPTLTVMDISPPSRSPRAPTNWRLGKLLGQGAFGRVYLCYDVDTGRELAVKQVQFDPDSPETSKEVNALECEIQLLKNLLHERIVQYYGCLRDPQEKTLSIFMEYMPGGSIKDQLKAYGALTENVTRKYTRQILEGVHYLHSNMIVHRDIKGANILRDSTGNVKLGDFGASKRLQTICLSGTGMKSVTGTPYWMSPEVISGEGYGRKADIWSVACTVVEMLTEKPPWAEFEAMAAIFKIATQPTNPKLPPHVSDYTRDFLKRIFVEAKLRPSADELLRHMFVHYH

[3] = target: T2, Serine/threonine-protein kinase PLK4 (Homo sapiens, UniProt O00444)
T2 sequence (O00444 whole entry): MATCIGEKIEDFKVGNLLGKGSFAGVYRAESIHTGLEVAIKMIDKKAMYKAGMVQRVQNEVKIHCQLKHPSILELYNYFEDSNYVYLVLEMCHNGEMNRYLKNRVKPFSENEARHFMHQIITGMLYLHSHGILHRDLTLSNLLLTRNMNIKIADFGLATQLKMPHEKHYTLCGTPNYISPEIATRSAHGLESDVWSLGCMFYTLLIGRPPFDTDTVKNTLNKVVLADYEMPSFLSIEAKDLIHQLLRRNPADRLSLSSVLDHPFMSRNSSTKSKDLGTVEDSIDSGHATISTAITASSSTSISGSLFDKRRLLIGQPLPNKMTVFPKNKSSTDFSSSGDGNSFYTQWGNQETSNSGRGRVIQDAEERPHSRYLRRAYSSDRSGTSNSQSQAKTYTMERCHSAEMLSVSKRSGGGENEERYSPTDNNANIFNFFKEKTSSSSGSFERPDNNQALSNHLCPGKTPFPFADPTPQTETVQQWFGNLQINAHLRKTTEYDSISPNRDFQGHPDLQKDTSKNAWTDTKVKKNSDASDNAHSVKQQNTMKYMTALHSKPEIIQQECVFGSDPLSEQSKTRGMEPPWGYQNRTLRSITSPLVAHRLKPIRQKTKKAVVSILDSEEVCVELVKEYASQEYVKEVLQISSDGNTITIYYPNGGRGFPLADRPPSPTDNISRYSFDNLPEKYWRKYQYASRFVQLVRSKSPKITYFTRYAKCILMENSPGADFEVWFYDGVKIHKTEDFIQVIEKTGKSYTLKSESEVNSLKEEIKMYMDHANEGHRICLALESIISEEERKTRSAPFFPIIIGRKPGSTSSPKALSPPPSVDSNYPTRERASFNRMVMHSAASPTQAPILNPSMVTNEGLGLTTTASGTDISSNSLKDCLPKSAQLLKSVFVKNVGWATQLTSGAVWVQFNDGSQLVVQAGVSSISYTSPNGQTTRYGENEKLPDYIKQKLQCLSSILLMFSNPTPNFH

[4] = target: T3, Tyrosine--tRNA ligase, cytoplasmic (Homo sapiens, UniProt P54577)
T3 sequence (P54577 whole entry): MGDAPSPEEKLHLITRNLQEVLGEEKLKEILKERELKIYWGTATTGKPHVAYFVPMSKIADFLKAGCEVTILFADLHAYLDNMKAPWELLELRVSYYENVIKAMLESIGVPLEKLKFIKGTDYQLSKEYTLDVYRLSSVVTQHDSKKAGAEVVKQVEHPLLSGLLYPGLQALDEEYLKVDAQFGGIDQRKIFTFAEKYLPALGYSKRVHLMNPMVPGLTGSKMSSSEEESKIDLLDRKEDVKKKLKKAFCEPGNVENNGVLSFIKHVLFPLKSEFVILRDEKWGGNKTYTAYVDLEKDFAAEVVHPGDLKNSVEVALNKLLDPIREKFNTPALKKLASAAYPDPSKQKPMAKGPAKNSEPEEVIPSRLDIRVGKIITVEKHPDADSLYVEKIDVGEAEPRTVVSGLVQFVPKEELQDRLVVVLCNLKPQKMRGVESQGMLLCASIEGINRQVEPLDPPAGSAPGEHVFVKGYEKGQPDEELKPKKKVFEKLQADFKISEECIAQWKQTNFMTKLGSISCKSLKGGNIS

[5] = target: Casein kinase I isoform gamma-1 (Homo sapiens, UniProt Q9HCP0)
Casein kinase I isoform gamma-1, sequence (Q9HCP0 whole entry, canonical isoform): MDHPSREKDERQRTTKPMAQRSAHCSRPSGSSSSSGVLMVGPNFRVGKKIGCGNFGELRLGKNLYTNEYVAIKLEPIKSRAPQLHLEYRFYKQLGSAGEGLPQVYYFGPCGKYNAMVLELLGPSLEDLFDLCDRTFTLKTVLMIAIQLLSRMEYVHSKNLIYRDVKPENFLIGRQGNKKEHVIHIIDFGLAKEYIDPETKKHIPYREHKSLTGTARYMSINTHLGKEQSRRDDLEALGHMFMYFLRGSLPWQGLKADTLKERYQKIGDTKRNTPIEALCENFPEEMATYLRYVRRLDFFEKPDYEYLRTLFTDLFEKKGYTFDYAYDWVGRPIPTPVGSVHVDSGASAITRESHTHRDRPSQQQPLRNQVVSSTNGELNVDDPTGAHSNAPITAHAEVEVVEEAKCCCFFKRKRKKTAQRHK

[6] = target: Cyclin-dependent kinase 6 (Homo sapiens, UniProt Q00534)
Cyclin-dependent kinase 6, sequence (Q00534 whole entry): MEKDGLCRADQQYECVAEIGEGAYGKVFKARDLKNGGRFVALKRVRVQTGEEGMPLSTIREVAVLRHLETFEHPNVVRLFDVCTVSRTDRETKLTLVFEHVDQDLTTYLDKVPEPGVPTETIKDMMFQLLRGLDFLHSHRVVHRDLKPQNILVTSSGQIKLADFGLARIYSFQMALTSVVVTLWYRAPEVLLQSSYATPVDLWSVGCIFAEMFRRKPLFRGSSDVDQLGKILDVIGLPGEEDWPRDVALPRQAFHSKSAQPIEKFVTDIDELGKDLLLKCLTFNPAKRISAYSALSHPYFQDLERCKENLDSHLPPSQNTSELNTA

ADP/ATP translocase 3 = target: T4, ADP/ATP translocase 3 (Homo sapiens, UniProt P12236)
T4 sequence (P12236 whole entry): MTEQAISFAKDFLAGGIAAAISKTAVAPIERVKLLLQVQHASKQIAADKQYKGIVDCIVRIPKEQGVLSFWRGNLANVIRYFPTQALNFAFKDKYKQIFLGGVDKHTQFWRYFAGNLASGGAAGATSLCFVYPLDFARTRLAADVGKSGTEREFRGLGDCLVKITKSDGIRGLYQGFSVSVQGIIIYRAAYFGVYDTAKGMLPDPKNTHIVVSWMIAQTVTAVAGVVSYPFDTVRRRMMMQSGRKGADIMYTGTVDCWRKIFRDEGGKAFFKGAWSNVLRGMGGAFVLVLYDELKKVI
Note: in the data inactive means no Kd found up to 30 µM.

Serine/threonine-protein kinase N2, sequence (Q16513 whole entry): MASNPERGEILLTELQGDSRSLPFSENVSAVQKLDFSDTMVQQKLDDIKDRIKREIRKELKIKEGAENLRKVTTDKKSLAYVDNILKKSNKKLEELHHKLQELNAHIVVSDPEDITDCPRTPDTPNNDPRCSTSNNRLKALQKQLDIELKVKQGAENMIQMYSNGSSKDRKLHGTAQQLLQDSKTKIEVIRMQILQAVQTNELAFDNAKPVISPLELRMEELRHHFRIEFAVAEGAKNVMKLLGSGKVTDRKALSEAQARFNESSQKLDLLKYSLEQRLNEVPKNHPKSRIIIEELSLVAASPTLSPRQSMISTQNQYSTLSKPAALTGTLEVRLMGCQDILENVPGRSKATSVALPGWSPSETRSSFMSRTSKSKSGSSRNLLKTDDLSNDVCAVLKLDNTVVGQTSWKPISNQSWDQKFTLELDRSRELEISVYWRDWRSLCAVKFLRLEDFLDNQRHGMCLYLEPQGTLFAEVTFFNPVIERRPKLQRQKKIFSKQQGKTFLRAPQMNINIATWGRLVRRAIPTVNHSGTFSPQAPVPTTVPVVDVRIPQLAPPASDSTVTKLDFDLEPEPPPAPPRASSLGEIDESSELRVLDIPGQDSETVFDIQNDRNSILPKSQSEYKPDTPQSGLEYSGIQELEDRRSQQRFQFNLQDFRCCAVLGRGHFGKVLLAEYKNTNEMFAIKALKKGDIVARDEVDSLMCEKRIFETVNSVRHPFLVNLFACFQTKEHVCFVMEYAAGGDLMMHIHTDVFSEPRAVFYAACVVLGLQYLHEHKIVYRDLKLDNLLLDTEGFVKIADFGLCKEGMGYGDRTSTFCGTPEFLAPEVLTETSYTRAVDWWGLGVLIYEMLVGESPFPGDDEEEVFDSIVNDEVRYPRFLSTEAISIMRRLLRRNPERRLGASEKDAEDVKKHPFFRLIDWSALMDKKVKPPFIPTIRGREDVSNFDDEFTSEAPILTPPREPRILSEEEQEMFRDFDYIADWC

SMILES	Kd [1]	Kd [2]	Kd [3]	Kd [4]	Kd [5]	Kd [6]	Kd (ADP/ATP translocase 3)
O=C(Cc1ccc(-c2ccc(OCCN3CCOCC3)cc2)cn1)NCc1ccccc1 [TIRBANIBULIN]	> 30 µM (inactive)	> 30 µM (inactive)	> 30 µM (inactive)	> 30 µM (inactive)	> 30 µM (inactive)	> 30 µM (inactive)	> 30 µM (inactive)
O=C1NC(=O)[C@@H](c2cn3c4c(cccc24)CCC3)[C@@H]1c1c[nH]c2ccccc12 [TIVANTINIB]	> 30 µM (inactive)	> 30 µM (inactive)	> 30 µM (inactive)	> 30 µM (inactive)	> 30 µM (inactive)	> 30 µM (inactive)	> 30 µM (inactive)
Cc1cc(Nc2ncnc3ccc(NC4=NC(C)(C)CO4)cc23)ccc1Oc1ccn2ncnc2c1 [TUCATINIB]	> 30 µM (inactive)	> 30 µM (inactive)	> 30 µM (inactive)	> 30 µM (inactive)	> 30 µM (inactive)	> 30 µM (inactive)	> 30 µM (inactive)
C[C@@H](N)c1ccc(C(=O)Nc2ccnc3[nH]ccc23)cc1 [Y-39983]	0.028 µM (active)	> 30 µM (inactive)	> 30 µM (inactive)	> 30 µM (inactive)	> 30 µM (inactive)	> 30 µM (inactive)	> 30 µM (inactive)
CN1C/C=C/CCOc2cccc(c2)-c2ccnc(n2)Nc2cccc(c2)C1 [ZOTIRACICLIB]	0.141 µM	> 30 µM (inactive)	> 30 µM (inactive)	> 30 µM (inactive)	> 30 µM (inactive)	1.6 µM	> 30 µM (inactive)

The remaining lines, values ahead:

Kd [1]	Kd [2]	Kd [3]	Kd [4]	Kd [5]	Kd [6]	Kd (ADP/ATP translocase 3)	SMILES
> 30 µM (inactive)	> 30 µM (inactive)	> 30 µM (inactive)	> 30 µM (inactive)	> 30 µM (inactive)	> 30 µM (inactive)	> 30 µM (inactive)	COc1cc2c(Nc3ccc(Cl)c(Cl)c3F)ncnc2cc1OC[C@@H]1C[C@@H]2CN(C)C[C@@H]2C1 [TESEVATINIB]
> 30 µM (inactive)	> 30 µM (inactive)	> 30 µM (inactive)	> 30 µM (inactive)	> 30 µM (inactive)	> 30 µM (inactive)	> 30 µM (inactive)	C[C@@H](NC(=O)c1ncnc(N)c1Cl)c1ncc(C(=O)Nc2cc(C(F)(F)F)c(Cl)cn2)s1 [TOVORAFENIB]
> 30 µM (inactive)	> 30 µM (inactive)	> 30 µM (inactive)	> 30 µM (inactive)	> 30 µM (inactive)	> 30 µM (inactive)	> 30 µM (inactive)	Cn1ncc(Cl)c1-c1cc(C(=O)N[C@H](CN)Cc2ccc(F)c(F)c2)oc1Cl [UPROSERTIB]
> 30 µM (inactive)	> 30 µM (inactive)	0.003 µM (active)	> 30 µM (inactive)	> 30 µM (inactive)	> 30 µM (inactive)	> 30 µM (inactive)	CC(C)c1cc(CNc2nc(Nc3cc(C4CC4)[nH]n3)cc(N3CCN(C)CC3)n2)on1 [XL-228]
